Results from the CheMixHub ionic liquid set.

Test: xn = mol fraction of the nth substance listed

[Cl][Al]([Cl])[Cl] + CC[n+]1ccn(C)c1.[Cl-]
101 kPa
Details | electrical conductivity [S/m]
263 K, frequency 0.1 MHz, x1 = 0.5455 | 0.14
263 K, frequency 0.1 MHz, x1 = 0.5652 | 0.13
263 K, frequency 0.1 MHz, x1 = 0.5833 | 0.57
263 K, frequency 0.1 MHz, x1 = 0.6 | 0.36
263 K, frequency 0.1 MHz, x1 = 0.6296 | 0.35
273 K, frequency 0.1 MHz, x1 = 0.5455 | 0.59
273 K, frequency 0.1 MHz, x1 = 0.5652 | 0.92
273 K, frequency 0.1 MHz, x1 = 0.5833 | 0.84
273 K, frequency 0.1 MHz, x1 = 0.6 | 0.53
273 K, frequency 0.1 MHz, x1 = 0.6296 | 0.52
283 K, frequency 0.1 MHz, x1 = 0.5238 | 1.24
283 K, frequency 0.1 MHz, x1 = 0.5455 | 1.34
283 K, frequency 0.1 MHz, x1 = 0.5652 | 1.33
283 K, frequency 0.1 MHz, x1 = 0.5833 | 1.13
283 K, frequency 0.1 MHz, x1 = 0.6 | 0.73
283 K, frequency 0.1 MHz, x1 = 0.6296 | 0.73
293 K, frequency 0.1 MHz, x1 = 0.5238 | 1.58
293 K, frequency 0.1 MHz, x1 = 0.5455 | 1.81
293 K, frequency 0.1 MHz, x1 = 0.5652 | 1.73
293 K, frequency 0.1 MHz, x1 = 0.6 | 0.96
293 K, frequency 0.1 MHz, x1 = 0.6296 | 0.99
303 K, frequency 0.1 MHz, x1 = 0.5238 | 2.05
303 K, frequency 0.1 MHz, x1 = 0.5455 | 2.47
303 K, frequency 0.1 MHz, x1 = 0.5652 | 2.3
303 K, frequency 0.1 MHz, x1 = 0.5833 | 1.89
303 K, frequency 0.1 MHz, x1 = 0.6 | 1.25
303 K, frequency 0.1 MHz, x1 = 0.6296 | 1.29
303.15 K, frequency 0 MHz, x1 = 0.6 | 1.92
303.15 K, frequency 0 MHz, x1 = 0.63 | 1.8
303.15 K, frequency 0 MHz, x1 = 0.67 | 1.64
306.15 K, frequency 1 MHz, x2 = 0.556 | 1.46
306.15 K, frequency 1 MHz, x2 = 0.67 | 0.409
313 K, frequency 0.1 MHz, x1 = 0.5238 | 2.58
313 K, frequency 0.1 MHz, x1 = 0.5652 | 2.95
313 K, frequency 0.1 MHz, x1 = 0.5833 | 2.34
313 K, frequency 0.1 MHz, x1 = 0.6 | 1.64
313 K, frequency 0.1 MHz, x1 = 0.6296 | 1.52
323 K, frequency 0.1 MHz, x1 = 0.5238 | 3.35
323 K, frequency 0.1 MHz, x1 = 0.5455 | 3.65
323 K, frequency 0.1 MHz, x1 = 0.5652 | 3.37
323 K, frequency 0.1 MHz, x1 = 0.5833 | 2.85
323 K, frequency 0.1 MHz, x1 = 0.6 | 2.18
323 K, frequency 0.1 MHz, x1 = 0.6296 | 1.83
333 K, frequency 0.1 MHz, x1 = 0.5238 | 4.09
333 K, frequency 0.1 MHz, x1 = 0.5455 | 3.96
333 K, frequency 0.1 MHz, x1 = 0.5652 | 4.11
333 K, frequency 0.1 MHz, x1 = 0.5833 | 3.04
333 K, frequency 0.1 MHz, x1 = 0.6 | 2.4
333 K, frequency 0.1 MHz, x1 = 0.6296 | 2.16
342.1 K, frequency 0.1 MHz, x1 = 0.5238 | 5.15
343 K, frequency 0.1 MHz, x1 = 0.5455 | 4.63
343 K, frequency 0.1 MHz, x1 = 0.5652 | 4.72
343 K, frequency 0.1 MHz, x1 = 0.5833 | 3.21
343 K, frequency 0.1 MHz, x1 = 0.6 | 2.82
343 K, frequency 0.1 MHz, x1 = 0.6296 | 2.49
352.1 K, frequency 0.1 MHz, x1 = 0.5238 | 6.3
353 K, frequency 0.1 MHz, x1 = 0.5652 | 5.34
353 K, frequency 0.1 MHz, x1 = 0.5833 | 4.2
353 K, frequency 0.1 MHz, x1 = 0.6 | 3.2
353 K, frequency 0.1 MHz, x1 = 0.6296 | 2.95
362.1 K, frequency 0.1 MHz, x1 = 0.6 | 3.69
363 K, frequency 0.1 MHz, x1 = 0.5238 | 6.4
363 K, frequency 0.1 MHz, x1 = 0.5455 | 5.69
363 K, frequency 0.1 MHz, x1 = 0.5652 | 5.87
363 K, frequency 0.1 MHz, x1 = 0.5833 | 4.33
363 K, frequency 0.1 MHz, x1 = 0.6296 | 3.3

101.3 kPa
Details | electrical conductivity [S/m]
270.1 K, x2 = 0.3333 | 0.533
270.4 K, x2 = 0.4348 | 0.75
270.6 K, x2 = 0.5556 | 0.36
271.1 K, x2 = 0.3636 | 0.6
271.1 K, x2 = 0.4 | 0.702
275.6 K, x2 = 0.4 | 0.822
275.6 K, x2 = 0.5263 | 0.832
275.6 K, x2 = 0.5556 | 0.471
276.1 K, x2 = 0.3333 | 0.711
276.1 K, x2 = 0.4348 | 0.901
277.1 K, x2 = 0.3636 | 0.798
280.6 K, x2 = 0.4348 | 1.01
281.1 K, x2 = 0.3636 | 0.946
281.1 K, x2 = 0.4 | 1.06
281.1 K, x2 = 0.4762 | 1.18
281.1 K, x2 = 0.5 | 1.28
281.1 K, x2 = 0.5263 | 1.03
281.1 K, x2 = 0.5556 | 0.595
282.1 K, x2 = 0.3333 | 0.896
288.15 K, x2 = 0.4348 | 1.34
290.15 K, x2 = 0.3636 | 1.33
290.15 K, x2 = 0.4762 | 1.59
290.65 K, x2 = 0.4 | 1.4
290.65 K, x2 = 0.5263 | 1.4
290.65 K, x2 = 0.5556 | 0.87
291.15 K, x2 = 0.5 | 1.83
292.15 K, x2 = 0.3333 | 1.23
303.15 K, x2 = 0.3333 | 1.65
303.15 K, x2 = 0.3636 | 1.82
303.15 K, x2 = 0.5263 | 1.93
303.15 K, x2 = 0.5556 | 1.33
304.15 K, x2 = 0.4762 | 2.42
304.15 K, x2 = 0.5 | 2.57
305.15 K, x2 = 0.4 | 2.03
305.15 K, x2 = 0.4348 | 2.24
309.15 K, x2 = 0.5556 | 1.57
312.65 K, x2 = 0.5263 | 2.46
314.15 K, x2 = 0.4348 | 2.69
314.65 K, x2 = 0.4 | 2.48
315.65 K, x2 = 0.3636 | 2.3
316.15 K, x2 = 0.3333 | 2.12
317.65 K, x2 = 0.4762 | 3.2
317.65 K, x2 = 0.5 | 3.3
320.15 K, x2 = 0.5556 | 2.21
321.15 K, x2 = 0.5263 | 3.01
323.15 K, x2 = 0.3333 | 2.46
323.15 K, x2 = 0.3636 | 2.64
323.15 K, x2 = 0.4 | 2.92
324.15 K, x2 = 0.4348 | 3.2
324.15 K, x2 = 0.4762 | 3.63
324.15 K, x2 = 0.5 | 3.79
330.15 K, x2 = 0.5556 | 2.71
331.15 K, x2 = 0.4 | 3.4
331.15 K, x2 = 0.5263 | 3.65
332.15 K, x2 = 0.4348 | 3.7
332.15 K, x2 = 0.4762 | 4.14
332.65 K, x2 = 0.5 | 4.37
333.15 K, x2 = 0.3333 | 2.93
334.15 K, x2 = 0.3636 | 3.18
341.15 K, x2 = 0.4348 | 4.28
342.15 K, x2 = 0.4 | 4.02
342.15 K, x2 = 0.4762 | 4.9
342.15 K, x2 = 0.5 | 5.03
342.15 K, x2 = 0.5263 | 4.39
343.15 K, x2 = 0.3333 | 3.38
343.15 K, x2 = 0.3636 | 3.64
344.15 K, x2 = 0.5556 | 3.63
350.65 K, x2 = 0.4 | 4.54
351.15 K, x2 = 0.4348 | 4.88
352.15 K, x2 = 0.5263 | 5.04
353.15 K, x2 = 0.3333 | 3.88
353.15 K, x2 = 0.3636 | 4.2
353.15 K, x2 = 0.4762 | 5.63
353.15 K, x2 = 0.5 | 5.79
353.15 K, x2 = 0.5556 | 4.27
361.15 K, x2 = 0.4 | 5.18
361.15 K, x2 = 0.4348 | 5.54
361.15 K, x2 = 0.4762 | 6.35
361.15 K, x2 = 0.5 | 6.43
363.15 K, x2 = 0.3333 | 4.45
363.15 K, x2 = 0.3636 | 4.8
363.15 K, x2 = 0.5263 | 5.91
364.15 K, x2 = 0.5556 | 5.09
370.15 K, x2 = 0.3333 | 4.82
370.15 K, x2 = 0.3636 | 5.19
371.15 K, x2 = 0.4 | 5.84
371.15 K, x2 = 0.4348 | 6.23
371.15 K, x2 = 0.4762 | 7.02
371.15 K, x2 = 0.5 | 7.19
372.15 K, x2 = 0.5263 | 6.56
374.15 K, x2 = 0.5556 | 5.89
